# Structures can show the parent of a compound that is named as a salt.
# What was measured:
# [1] = tested on: MDA-MB-231-luc-D3H2LN cells; assay: Breast tumor metastasis model, intracardiac injection, bioluminescent imaging; format: in vivo, mouse; conditions: AB0023 30 mg/kg IP twice per week; taxol 5 mg/kg daily
# Protocol: In this model system, MDA-MB-231-luc-D3H2LN cells (Caliper Life Sciences, Hopkinton, Mass.), a derivative of a human breast cancer cell line that has been stably transfected with a luciferase gene were introduced into female nude mice by intracardiac injection. The cells are disseminated through the circulation, and the occurrence and location of metastases are determined by in vivo bioluminescent imaging (BLI).
# Approximately 80 female nude mice (NCr nu/nu), 8-10 weeks old, were anesthetized by intraperitoneal injection of a solution of 100 mg/kg ketamine and 5 mg/kg xylazine. […] Bioluminescence from whole body and lung projection was measured and expressed as photons per second. If the ratio of whole body luminescence to lung luminescence was less than 3, the mouse was excluded from the study. […]
# Ventral and dorsal views of the animals were obtained by in vivo bioluminescent imaging (BLI) on days 0, 7, 10, 13, 16, 21, 24 AND 28; using the IVIS®-Spectrum imaging system (Caliper Life Sciences, Hopkinton, Mass.). Data were analyzed using Living Image 3.0 Software (Caliper Life Sciences, Hopkinton, Mass.).
# Body weight was measured once per week for the first two weeks of the study, then three times per week until the conclusion of the study. […]
# [2] = tested on: BxPC-3-GFP tumor cells; assay: Surgical orthotopic implantation of BxPC-3-GFP pancreatic tumor cells in nude mice; format: in vivo, mouse; conditions: female NCr nu/nu mice; AB0023 30 mg/kg IP twice per week 6 weeks; Gemzar 200 mg/kg IP once per week 3 weeks
# Protocol: Tumor formation and metastasis are monitored by fluorescence imaging.
# Approximately 75 female nude mice (NCr nu/nu), 5-6 weeks old, are anesthetized by intraperitoneal injection of a solution of 100 mg/kg ketamine and 5 mg/kg xylazine. Under anesthesia, BxPC-3-GFP tumor cells are surgically implanted, by suturing into the pancreas. […] Each group contains 15 animals, and all administrations are intraperitoneal.
# Body weight is determined once per week.
# At the conclusion of the study, blood is collected by cardiac puncture and one ml is used for preparation of serum.
# The other half is snap frozen for RNA isolation.
Structure (SMILES),survival advantage compared to vehicle-treated animals [1],mean tumor volume [2]
CC(=O)O[C@H]1C(=O)[C@@]2(C)[C@H]([C@H](OC(=O)c3ccccc3)[C@]3(O)C[C@H](OC(=O)[C@H](O)[C@@H](NC(=O)c4ccccc4)c4ccccc4)C(C)=C1C3(C)C)[C@]1(OC(C)=O)CO[C@@H]1C[C@@H]2O [taxol],not observed,
"Nc1ccn([C@@H]2O[C@H](CO)[C@@H](O)C2(F)F)c(=O)n1 [Gemzar, gemcitabine-HCl]",,reduced
